US11364231B2, “Methods of treating radiation induced gastrointestinal syndrome (RIGS) and related disease states using YEL002/BCN057” (priority 2017, dated 2022)
Where “and” joins values, the source holds several entries; their conditions need not be identical. Identical values can stand only once. Entries after “also recorded” stand apart in the source; their conditions may differ.

Tests used:
[1] = tested on: C57B16 mice exposed to AIR; experiment: Survival after lethal abdominal irradiation (AIR), RIGS model; conditions: for survival: BCN057 s.c. 150 mg/kg from 24 hrs post AIR, single dose/day up to day 8, n=25/group, vehicle/untreated died within 15 days
Protocol: FIG. 1A. […] A 3 cm area of the mice containing the GI was irradiated (irradiation field), thus shielding the upper thorax, head and neck as well as lower and upper extremities, protecting a significant portion of the bone marrow, thus inducing predominantly RIGS. Mice exposed to AIR were treated with BCN057 (s.c.) (150 mg/kg of body weight) at 24 hrs post irradiation and continued up to day 8 (single dose/day).
To examine the radio-mitigating role of BCN057 against RIGS, C57B16 mice were exposed to graded doses of abdominal irradiation (AIR) (14-15Gy) after shielding the thorax, head and neck, and extremities, thus protecting the bone marrow.
Male C57B16/6J (Jackson laboratories) mice (five to six weeks old) were maintained ad libitum and all studies were performed under the guidelines and protocols of the Institutional Animal Care and Use Committee of the University of Kansas medical center.
AIR was performed on anaesthetized mice (with a continuous flow 1.5 ml min-1 of 1.5% isoflurane in pure oxygen) using the small animal radiation research platform (SARRP, XStrahl, Surrey, UK). A 2 cm area of the mice containing the GI was irradiated (FIG. 2), thus shielding the upper thorax, head and neck as well as lower and upper extremities, protecting a significant portion of the bone marrow, thus inducing predominantly RIGS. A radiation dose of 14-15 Gy was delivered to the midline of the GI, ensuring homogeneous delivery by performing half of the total irradiation from the anterior-posterior direction and the second half from the posterior-anterior direction. The total irradiation time to deliver the intended dose was calculated with respect to dose rate, radiation field size and fractional depth dose to ensure accurate radiation dosimetry.

[2] = tested on: intestinal crypt organoids from Lgr5/EGFP-IRES-Cre-ERT2 knock in mice; experiment: Ex vivo irradiated mouse intestinal crypt organoids; type: cell-based
Excerpt: To analyze the effect of BCN057 on ISC population, an ex vivo primary intestinal culture system exposed to graded doses of irradiation was developed. Intestinal crypt isolated from Lgr5/EGFP-IRES-Cre-ERT2 knock in mice to allow the visualization of the ISCs. At a dose level of 8 Gy most of the Lgr5+ve ISCs had disappeared within 48 hrs resulting significant loss of budding crypt with changes in existing crypt morphology indicating inhibition of ISC growth and differentiation in response to radiation exposure. […] A representative microscopic image of effect of BCN057 on budding crypt having Lgr5+ve ISCs (GFP+ve cells indicated with arrow) is shown in FIG. 10.
Small intestine from Lgr5-GFP mice, or their littermates control mice was used for crypt isolation and development of ex vivo organoid culture. The tissue was scraped for removing villi and chopped into˜5 mm pieces. Then tissue was washed with cold PBS, and incubated in dissociation buffer for 20 mins in rotor at room temperature. The tissue fragments were suspended vigorously with a 10-ml pipette in cold 0.1% BSA in PBS, yielding supernatants enriched in epithelial cells. […] The number of organoids per well was counted on microscopic images. […] Total number of crypt structures and number of budding crypts were counted and expressed as a ratio of budding crypts/total crypt structure.

[3] = tested on: nuclear β-catenin in crypt epithelial cells; experiment: β-Catenin immunohistochemistry of mouse jejunum; type: in vivo, mice; conditions: BCN057 at 24 hrs post AIR vs irradiated untreated animals
Protocol: The effect of BCN057 was analyzed in crypt epithelial β-catenin activation. […] Nuclear β-catenin positive cells were primarily observed in crypt bottom which is also location for ISCs indicating activation of WNT-β-catenin signaling in ISCs.
β-Catenin immunohistochemistry was performed in paraffin-embedded sections of mouse jejunum (56). Before immunostaining antigen retrieval was performed by heating slides in […] at 100° C. for 20 min in a microwave oven at 500 W using antigen retrieval solution (10 mM Tris and 1 mM EDTA, pH 9.0). Non-specific antibody binding was blocked for 20 min. by incubation with 0.05% w/v BSA in PBS. Tissue was stained using the anti-β-catenin antibody (1:100 dilution; BD Transduction Laboratories, Franklin Lakes, N.J.; #610154) at room temperature for 2 hr followed by staining with horseradish peroxidase-conjugated Anti-Mouse Antibody (Dako, Denmark) at room temperature for 1 hr. Peroxidase activity was detected by adding DAB substrate. Nucleus was counter-stained with haematoxylin (blue). β-Catenin-positive nucleus (stained dark brown) was calculated from 15 crypts per field, 5 fields per mice.

[4] = tested on: human colonic organoid developed from non-malignant tissue; experiment: Irradiated human colonic organoids from non-malignant tissue; type: cell-based
Protocol: FIG. 13. […] Note presence of budding crypt like structure in BCN057 treated group.
To examine the effect of BCN057 on human intestinal, epithelial tissue surgical specimen collected from normal colon at least 10 cm apart from malignant site was used to develop ex vivo crypt organoid. At a dose level of 8 Gy all the budding crypts have been disappeared in the organoids. […] The effect of BCN057 on mRNA level of β-catenin target genes in organoids was also evaluated.

[5] = Solubility in aqueous formulations; type: physicochemical
Protocol: In another embodiment formulation for intravenous, subcutaneous and oral delivery of therapeutic levels of Yel002/BCN057 were developed comprising 30 wt % Captisol (SBE-beta-CD) and 100 mM MSA at pH 4.1 or higher (adjusted with 1.0 N NaOH).

COc1ccc2cc(-c3nc4ccc(C)cn4c3NCc3ccco3)c(=O)[nH]c2c1 [BCN057, 3-(3((furan-2-ylmethyl)ammo)-6-methylimidazo[1,2-a]pyridine-2-yl)-6-methoxyquinolin-2(1H)-one]
duration of survival post AIR ([1]; 14-15 Gy AIR, BCN057 at 24 hrs post AIR): > 30 days and > 60 days
survival ([1]; 14Gy AIR): 80%
survival ([1]; 15Gy AIR): 60%
symptoms / clinical conditions in surviving treated mice ([1]; after AIR/PBI, observed up to day 30-60 post exposure): without showing any symptoms of RIGS; also recorded: did not develop any clinical conditions; also recorded: without any symptom of gastroenteritis or any other health complications
toxicity to normal mice ([1]; normal (un-irradiated) mice): do not confer any toxicity
organoid growth / ratio of budding crypt to total crypt ([2]; 8 Gy, BCN057 10 uM at 1 hr after irradiation): restored the number of budding crypts to un-irradiated levels; also recorded: improved the organoid growth
Lgr5+ve ISCs in organoids ([2]; 8Gy, BCN057 treated vs irradiated control): recused Lgr5+ve ISCs; also recorded: increases the presence of Lgr5+ve cells
nuclear β-catenin positive cells [3]: significant increase; also recorded: more nuclear β-catenin staining
budding crypts / organoid structure ([4]; 8Gy, BCN057 (20 ug/ml) at 1 hr post irradiation, 72 hrs): complete restitution of organoid structure; also recorded: rescued the organoids from radiation toxicity
Ki67 staining in budding crypt like structure ([4]; 8Gy, BCN057 treated organoids): positive staining
ratio of budding crypt to total number of crypts ([4]; irradiated organoids 4Gy and 8Gy, vs untreated irradiated control): increased
solubility ([5]; 30 wt % Captisol (SBE-beta-CD) and 100 mM MSA, at up to pH 4.1 or higher): excellent solubility
solubility in aqueous solution ([5]; physiologically compatible pHs, 100 mM MSA/10% PVP, 100 mM MSA/2% benzyl alcohol/2% NMP, 100 mM MSA/10% ethanol/1% Poloxamer 188): solubalized
